Experimental data reported in patent publication US6737383B1, “Herbicidal oxadiazolidines” (priority 1999, dated 2004).

How the values were obtained:
kochia [1] = assay: Test E kochia; format: in vivo, Kochia scoparia; settings: Preemergence; for Kochia plant response rating (0 to 100 scale): Rate 250 g/ha
annual bluegrass = assay: Test E annual bluegrass; format: in vivo, Poa annua; settings: Preemergence; for Annual bluegras plant response rating (0 to 100 scale): Rate 250 g/ha
black nightshade = assay: Test E black nightshade; format: in vivo, Solanum nigra; settings: Postemergence; for Plant response rating, Blk nightshade: 0 to 100 scale; for Blk nightshade plant response rating: Rate 250 g/ha, 0 to 100 scale where 0 is no effect and 100 is complete control
Outline: (§1)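 Plants were grown under normal greenhouse practice; for postemergence, in sandy loam soil mixed 60:40 with potting mix, treated at the 1- to 4-leaf stage. The compound was in a non-phytotoxic solvent carrying a surfactant. After roughly 21 to 28 days plants were scored visually against untreated plants.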

sugar beet = assay: Test E sugar beet; format: in vivo, Beta vulgaris; settings: Postemergence; for Plant response rating, Sugar beet: 0 to 100 scale; for Sugar beet plant response rating: Rate 250 g/ha, 0 to 100 scale where 0 is no effect and 100 is complete control
Experimental: (§2) Compounds evaluated in this test were formulated in a non-phytotoxic solvent mixture which included a surfactant and applied to plants that were in the 1- to 4-leaf stage (postemergence application). A mixture of sandy loam soil and greenhouse potting mix in a 60:40 ratio was used for the postemergence test.
(§3) Plantings of these crops and weed species were adjusted to produce plants of appropriate size for the postemergence test. All plant species were grown using normal greenhouse practices. Crop and weed species include annual bluegrass (Poa annua), blackgrass (Alopecurus myosuroides), black nightshade (Solanum nigra), chickweed (Stellaria media), common poppy (Papaver rhoeas), deadnettle (Lamium amplexicaule), downy brome (Bromus tectorum), field violet (Viola arvensis), galium (Galium aparine), green foxtail (Setaria viridis), Italian ryegrass (Lolium multiflorum), jointed goatgrass (Aegilops cylindrica), kochia (Kochia scoparia), lambsquarters (Chenopodium album), littleseed canarygrass (Phalaris minor), rape (Brassica napus), redroot pigweed (Amaranthus retroflexus), Russian thistle (Salsola kali), scentless chamomile (Matricaria inodora), spring barley (Hordeum vulgare), sugar beet (Beta vulgaris), sunflower (Helianthus annuus), ivyleaf speedwell (Veronica hederaefolia), spring wheat (Triticum aestivum), winter wheat (Triticum aestivum), wild buckwheat (Polygonum convolvulus), wild mustard (Sinapis arvensis), wild oat (Avena fatua), windgrass (Apera spica-venti) and winter barley (Hordeum vulgare).
(§4) Treated plants and untreated controls were maintained in a greenhouse for approximately 21 to 28 days, after which all treated plants were compared to untreated controls and visually evaluated. […] A dash response (-) means no test result.

Italian ryegrass = assay: Test E Italian ryegrass; format: in vivo, Lolium multiflorum; settings: Postemergence; for Plant response rating, I. Ryegrass: 0 to 100 scale; for I. Ryegrass plant response rating: Rate 250 g/ha, 0 to 100 scale where 0 is no effect and 100 is complete control
Experimental: as §2, §3, §4

lambsquarters = assay: Test E lambsquarters; format: in vivo, Chenopodium album; settings: Postemergence; for Plant response rating Lambsquarters: 0 to 100 scale; for Lambsquarters plant response rating: Rate 250 g/ha, 0 to 100 scale where 0 is no effect and 100 is complete control
Experimental: as §2, §3, §4

kochia [2] = assay: Test E kochia; format: in vivo, Kochia scoparia; settings: Postemergence; for Plant response rating, Kochia: 0 to 100 scale; for Kochia plant response rating: Rate 250 g/ha, 0 to 100 scale where 0 is no effect and 100 is complete control
Outline: as §1

sunflower = assay: Test E sunflower; format: in vivo, Helianthus annuus; settings: Preemergence; for Sunflower plant response rating (0 to 100 scale): Rate 250 g/ha
spring wheat = assay: Test E spring wheat; format: in vivo, Triticum aestivum; settings: Postemergence; for Plant response rating, Spring Wheat: 0 to 100 scale; for Spring Wheat plant response rating: Rate 250 g/ha, 0 to 100 scale where 0 is no effect and 100 is complete control
Outline: as §1

barnyardgrass = assay: Test C postemergence barnyardgrass; format: in vivo, Echinochloa crus-galli; settings: 0 to 100 scale, 0 no effect, 100 complete control
Experimental: as §2, with “grown for various periods of time before treatment” for “in the 1- to 4-leaf stage”
Plantings of these crops and weed species were adjusted to produce plants of appropriate size for the postemergence test. All plant species were grown using normal greenhouse practices. Crop and weed species include arrowleaf sida (Sida rhombifolia), barnyardgrass (Echinochloa crus-galli), cocklebur (Xanthium strumarium), common ragweed (Ambrosia elatior), corn (Zea mays), cotton (Gossypium hirsutum), eastern black nightshade (Solanum ptycanthum), fall panicum (Panicum dichotomiflorum), field bindweed (Convolvulus arvensis), giant foxtail (Setaria faberii), hairy beggarticks (Bidens pilosa), ivyleaf morningglory (Ipomoea hederacea), johnsongrass (Sorghum halepense), ladysthumb smartweed (Polygonum persicaria), lambsquarters (Chenopodium album), large crabgrass (Digitaria sanguinalis), purple nutsedge (Cyperus rotundus), redroot pigweed (Amaranthus retroflexus), soybean (Glycine max), surinam grass (Brachiaria decumbens), velvetleaf (Abutilon theophrasti) and wild poinsettia (Euphorbia heterophylla).
Treated plants and untreated controls were maintained in a greenhouse for approximately 14, to 21 days, after which all treated plants were compared to untreated controls and visually evaluated. Plant response ratings, summarized in Table C, were based upon a 0 to 100 scale where 0 was no effect and 100 was complete control. A dash response (−) means no test result.

downy brome = assay: Test E downy brome; format: in vivo, Bromus tectorum; settings: Postemergence; for Plant response rating, Downy brome: 0 to 100 scale; for Downy brome plant response rating: Rate 250 g/ha, 0 to 100 scale where 0 is no effect and 100 is complete control
Experimental: as §2, §3, §4

rape = assay: Test E rape; format: in vivo, Brassica napus; settings: Postemergence; for Plant response rating, Rape: 0 to 100 scale; for Rape plant response rating: Rate 250 g/ha, 0 to 100 scale where 0 is no effect and 100 is complete control
Experimental: […] A mixture of sandy loam soil and greenhouse potting mix in a 60:40 ratio was used for the postemergence test.
as §3, §4

field violet = assay: Test E field violet; format: in vivo, Viola arvensis; settings: Preemergence; for Field violet plant response rating (0 to 100 scale): Rate 250 g/ha
Alexandergrass = assay: Test D Alexandergrass; format: in vivo, Brachiaria plantaginea; settings: Postemergence, 0 to 100 scale
Green foxtail = assay: Test D green foxtail; format: in vivo; settings: Rate 250 g/ha; Postemergence; 0 to 100 scale
[3] = Rate 125 g/ha, 0 to 100 scale (0 no effect, 100 complete control)
[4] = Rate 500 g/ha, 0 to 100 scale where 0 is no effect and 100 is complete control
[5] = Rate 125 g/ha, 0 is no effect, 100 is complete control
[6] = Rate 500 g/ha, 0 is no effect, 100 is complete control
[7] = Rate 16 g/ha, 0 no injury, 100 complete control
[8] = Rate 32 g/ha, 0 no injury, 100 complete control
[9] = Rate 64 g/ha, 0 no injury, 100 complete control
[10] = Rate 125 g/ha, 0 no injury, 100 complete control

## CC(C)N(C(=O)n1oc(=O)n(C)c1=O)c1ccc(F)cc1 [Compound 138]
Kochia [1]; [3]
  Plant response rating, Kochia: 20
Kochia [1]
  Kochia plant response rating (0 to 100 scale): 40
Annual bluegrass
  Annual bluegras plant response rating (0 to 100 scale): 70
Black nightshade; Rate 125 g/ha
  Plant response rating, Blk nightshade: 20
Black nightshade
  Blk nightshade plant response rating: 60
Sugar beet; Rate 125 g/ha
  Plant response rating, Sugar beet: 30
Sugar beet
  Sugar beet plant response rating: 10
Italian ryegrass; Rate 125 g/ha
  Plant response rating, I. Ryegrass: 0
Italian ryegrass
  I. Ryegrass plant response rating: 0
lambsquarters; Rate 125 g/ha
  Plant response rating Lambsquarters: 10
lambsquarters
  Lambsquarters plant response rating: 30
Kochia [2]; Rate 125 g/ha
  Plant response rating, Kochia: 15
Kochia [2]
  Kochia plant response rating: 0
sunflower; [3]
  Plant response rating, Sunflower: 55
sunflower
  Sunflower plant response rating (0 to 100 scale): 60
Spring wheat; Rate 125 g/ha
  Plant response rating, Spring Wheat: 0
Spring wheat
  Spring Wheat plant response rating: 0
barnyardgrass; Rate 140 g/ha
  Plant response rating, Barnyardgrass: 40
barnyardgrass; Rate 280 g/ha
  Plant response rating, Barnyardgrass: 70
barnyardgrass; Rate 560 g/ha
  Plant response rating, Barnyardgrass: 85
barnyardgrass; Rate 1120 g/ha
  Plant response rating, Barnyardgrass: 85
Downy brome; Rate 125 g/ha
  Plant response rating, Downy brome: 0
Downy brome
  Downy brome plant response rating: 2
rape; Rate 125 g/ha
  Plant response rating, Rape: 10
rape
  Rape plant response rating: 0
Field violet; [3]
  Plant response rating, Field violet: 50
Field violet
  Field violet plant response rating (0 to 100 scale): 70

## CC(C)N(C(=O)n1oc(=O)n(C2CC2)c1=O)c1ccc(F)cc1 [Compound 242]
Kochia [1]; [3]
  Plant response rating, Kochia: 35
Kochia [1]
  Kochia plant response rating (0 to 100 scale): 50
Kochia [1]; [4]
  Plant response rating, Kochia: 60
Annual bluegrass; [3]
  Plant response rating, Annual bluegras: 100
Annual bluegrass
  Annual bluegras plant response rating (0 to 100 scale): 100
Annual bluegrass; [4]
  Plant response rating, Annual bluegras: 100
Black nightshade; Rate 62 g/ha
  Plant response rating, Blk nightshade: 60
Black nightshade; [5]
  Plant response rating, Blk nightshade: 30
Black nightshade
  Blk nightshade plant response rating: 50
Black nightshade; [6]
  Plant response rating, Blk nightshade: 75
Sugar beet; Rate 62 g/ha
  Plant response rating, Sugar beet: 50
Sugar beet; [5]
  Plant response rating, Sugar beet: 50
Sugar beet
  Sugar beet plant response rating: 40
Sugar beet; [6]
  Plant response rating, Sugar beet: 30
Italian ryegrass; Rate 62 g/ha
  Plant response rating, I. Ryegrass: 50
Italian ryegrass; [5]
  Plant response rating, I. Ryegrass: 0
Italian ryegrass
  I. Ryegrass plant response rating: 70
Italian ryegrass; [6]
  Plant response rating, I. Ryegrass: 60
lambsquarters; Rate 62 g/ha
  Plant response rating Lambsquarters: 10
lambsquarters; [5]
  Plant response rating Lambsquarters: 0
lambsquarters
  Lambsquarters plant response rating: 0
lambsquarters; [6]
  Plant response rating Lambsquarters: 0
Alexandergrass; [7]
  Plant response rating, Alexandergrass: 0
Alexandergrass; [8]
  Plant response rating, Alexandergrass: 50
Alexandergrass; [9]
  Plant response rating, Alexandergrass: 90
Alexandergrass; [10]
  Plant response rating, Alexandergrass: 100
Alexandergrass; Rate 250 g/ha
  Plant response rating, Alexandergrass: 100
Kochia [2]; Rate 62 g/ha
  Plant response rating, Kochia: 20
Kochia [2]; [5]
  Plant response rating, Kochia: 60
Kochia [2]
  Kochia plant response rating: 0
Kochia [2]; [6]
  Plant response rating, Kochia: 20
sunflower; [3]
  Plant response rating, Sunflower: 55
sunflower
  Sunflower plant response rating (0 to 100 scale): 70
sunflower; [4]
  Plant response rating, Sunflower: 60
Green foxtail
  Plant response rating, Green foxtail: 100
Spring wheat; Rate 62 g/ha
  Plant response rating, Spring Wheat: 15
Spring wheat; [5]
  Plant response rating, Spring Wheat: 20
Spring wheat
  Spring Wheat plant response rating: 10
Spring wheat; [6]
  Plant response rating, Spring Wheat: 20
barnyardgrass; Rate 140 g/ha
  Plant response rating, Barnyardgrass: 80
barnyardgrass; Rate 280 g/ha
  Plant response rating, Barnyardgrass: 85
barnyardgrass; Rate 560 g/ha
  Plant response rating, Barnyardgrass: 90
barnyardgrass; Rate 1120 g/ha
  Plant response rating, Barnyardgrass: 95
Downy brome; Rate 62 g/ha
  Plant response rating, Downy brome: 30
Downy brome; [5]
  Plant response rating, Downy brome: 30
Downy brome
  Downy brome plant response rating: 30
Downy brome; [6]
  Plant response rating, Downy brome: 40
rape; Rate 62 g/ha
  Plant response rating, Rape: 20
rape; [5]
  Plant response rating, Rape: 10
rape
  Rape plant response rating: 0
rape; [6]
  Plant response rating, Rape: 50
Field violet; [3]
  Plant response rating, Field violet: 50
Field violet
  Field violet plant response rating (0 to 100 scale): 65
Field violet; [4]
  Plant response rating, Field violet: 100

## CC(C)N(C(=O)n1oc(=O)n(C2CCCCCC2)c1=O)c1ccc(F)cc1F [Compound 342]
Alexandergrass; [7]
  Plant response rating, Alexandergrass: 0
Alexandergrass; [8]
  Plant response rating, Alexandergrass: 0
Alexandergrass; [9]
  Plant response rating, Alexandergrass: 0
Alexandergrass; [10]
  Plant response rating, Alexandergrass: 70
Alexandergrass; Rate 250 g/ha
  Plant response rating, Alexandergrass: 80
Green foxtail
  Plant response rating, Green foxtail: 100
